Results published in patent publication US7700592B2, “α2C adrenoreceptor agonists” (Schering Corporation, priority 2005, dated 2010).

Biological target: T1, α2C receptor (Homo sapiens, UniProt P18825)
T1 sequence (P18825 1-462): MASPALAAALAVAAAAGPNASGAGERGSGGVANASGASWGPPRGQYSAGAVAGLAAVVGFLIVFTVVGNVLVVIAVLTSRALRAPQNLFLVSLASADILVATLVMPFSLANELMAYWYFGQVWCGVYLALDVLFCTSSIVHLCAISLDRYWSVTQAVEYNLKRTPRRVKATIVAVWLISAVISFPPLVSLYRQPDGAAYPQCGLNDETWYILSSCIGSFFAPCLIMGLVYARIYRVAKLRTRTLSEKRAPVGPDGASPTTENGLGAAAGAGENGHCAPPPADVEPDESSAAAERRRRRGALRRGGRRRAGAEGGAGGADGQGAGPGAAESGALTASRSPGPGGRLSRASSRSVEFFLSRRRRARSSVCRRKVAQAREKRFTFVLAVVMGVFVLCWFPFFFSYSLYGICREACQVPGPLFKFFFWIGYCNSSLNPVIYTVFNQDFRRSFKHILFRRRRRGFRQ
Assay: GTPγS assay, efficacy agonist activity (Emax) for α2C
Type: biochemical
Details: active agonist = efficacy at α2C ≧30% Emax; functionally selective = additionally efficacy at α2A ≦30% Emax (GTPγS assay)
Outline: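 Emax measured in a [^35S]GTPγS functional assay at the human α2C adrenoceptor, following Umland et al. An efficacy of ≧30% Emax defines an active α2C agonist.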

Row | Compound | Efficacy agonist activity (Emax, GTPγS assay) for α2C: evaluated as active or functionally selective agonist
1 | CCN(C(=O)OCc1cn(C)cn1)c1ccc2c(c1)N(Cc1c[nH]cn1)CCO2 [Compound 287] | active or functionally selective agonists of the α2C receptor subtype
2 | CCN(C(=O)OCc1cn2ccsc2n1)c1ccc2c(c1)N(Cc1c[nH]cn1)CCO2 [Compound 289] | active or functionally selective agonists of the α2C receptor subtype
3 | CCN(C(=O)OCc1cn2ccccc2n1)c1ccc2c(c1)N(Cc1c[nH]cn1)CCO2 [Compound 290] | active or functionally selective agonists of the α2C receptor subtype
4 | O=C(NCc1ccccn1)Nc1ccc2c(c1)N(Cc1c[nH]cn1)CCO2 [Compound 291] | active or functionally selective agonists of the α2C receptor subtype
5 | O=C(NCCc1cccs1)Nc1ccc2c(c1)N(Cc1c[nH]cn1)CCO2 [Compound 297] | active or functionally selective agonists of the α2C receptor subtype
6 | O=C(Nc1ccc2c(c1)N(Cc1c[nH]cn1)CCO2)OCCOc1ccccc1 [Compound 304] | active or functionally selective agonists of the α2C receptor subtype
7 | O=C(Nc1ccc2c(c1)N(Cc1c[nH]cn1)CCO2)OCc1ccc(F)cc1 [Compound 305] | active or functionally selective agonists of the α2C receptor subtype
8 | O=C(Nc1ccc2c(c1)N(Cc1c[nH]cn1)CCO2)OCc1cccc(F)c1 [Compound 306] | active or functionally selective agonists of the α2C receptor subtype
9 | O=C(NCc1ccc(F)cc1)Nc1ccc2c(c1)N(Cc1c[nH]cn1)CCO2 [Compound 307] | active or functionally selective agonists of the α2C receptor subtype
10 | O=C(NCc1cccc(F)c1)Nc1ccc2c(c1)N(Cc1c[nH]cn1)CCO2 [Compound 308] | active or functionally selective agonists of the α2C receptor subtype
11 | CS(=O)(=O)c1ccc(COC(=O)Nc2ccc3c(c2)N(Cc2c[nH]cn2)CCO3)cc1 [Compound 309] | active or functionally selective agonists of the α2C receptor subtype
12 | O=C(Nc1ccc2c(c1)N(Cc1c[nH]cn1)CCO2)OCc1nccs1 [Compound 310] | active or functionally selective agonists of the α2C receptor subtype
13 | O=C(Nc1ccc2c(c1)N(Cc1c[nH]cn1)CCO2)OCc1cc2cccnc2s1 [Compound 311] | active or functionally selective agonists of the α2C receptor subtype
14 | O=C(Nc1ccc2c(c1)N(Cc1c[nH]cn1)CCO2)OCc1nc2ccccc2s1 [Compound 312] | active or functionally selective agonists of the α2C receptor subtype
15 | O=C(Nc1ccc2c(c1)N(Cc1c[nH]cn1)CCO2)OCc1ccnc(Cl)c1 [Compound 314] | active or functionally selective agonists of the α2C receptor subtype
16 | O=C(Nc1ccc2c(c1)N(Cc1c[nH]cn1)CCO2)OCC1CCC1 [Compound 315] | active or functionally selective agonists of the α2C receptor subtype
17 | O=C(Nc1ccc2c(c1)N(Cc1c[nH]cn1)CCO2)OCc1ccc2sccc2c1 [Compound 316] | active or functionally selective agonists of the α2C receptor subtype
18 | Cc1cc(COC(=O)Nc2ccc3c(c2)N(Cc2c[nH]cn2)CCO3)no1 [Compound 317] | active or functionally selective agonists of the α2C receptor subtype
19 | O=C(Nc1ccc2c(c1)N(Cc1c[nH]cn1)CCO2)OCc1cccnc1 [Compound 318] | active or functionally selective agonists of the α2C receptor subtype
20 | CCN(C(=O)OCCSC)c1ccc2c(c1)N(Cc1c[nH]cn1)CCO2 [Compound 319] | active or functionally selective agonists of the α2C receptor subtype
21 | CCN(C(=O)OCc1cc(C)nn1C)c1ccc2c(c1)N(Cc1c[nH]cn1)CCO2 [Compound 323] | active or functionally selective agonists of the α2C receptor subtype
22 | CCN(C(=O)OCc1cc(C)n(C)n1)c1ccc2c(c1)N(Cc1c[nH]cn1)CCO2 [Compound 324] | active or functionally selective agonists of the α2C receptor subtype
23 | CCN(c1ccc2c(c1)N(Cc1c[nH]cn1)CCO2)c1ccccn1 [Compound 326] | active or functionally selective agonists of the α2C receptor subtype
24 | CCN(c1ccc2c(c1)N(Cc1c[nH]cn1)CCO2)c1nccs1 [Compound 327] | active or functionally selective agonists of the α2C receptor subtype
25 | CCN(c1ccc2c(c1)N(Cc1c[nH]cn1)CCO2)c1cnccn1 [Compound 329] | active or functionally selective agonists of the α2C receptor subtype
26 | CCN(c1ccc2c(c1)N(Cc1c[nH]cn1)CCO2)c1ncc([N+](=O)[O-])s1 [Compound 331] | active or functionally selective agonists of the α2C receptor subtype
27 | CN(c1ccc2c(c1)N(Cc1c[nH]cn1)CCO2)c1ccccn1 [Compound 332] | active or functionally selective agonists of the α2C receptor subtype
28 | CCN(c1ccc2c(c1)N(Cc1c[nH]cn1)CCO2)S(=O)(=O)CCN1C(=O)c2ccccc2C1=O [Compound 335] | active or functionally selective agonists of the α2C receptor subtype
29 | Cc1cc(COC(=O)Nc2ccc3c(c2)N(Cc2c[nH]cn2)CCO3)n(C)n1 [Compound 340] | active or functionally selective agonists of the α2C receptor subtype
